Data on 20 compounds can be found in ChEMBL document CHEMBL5316363, “Compounds Related to Saudin and Three New Series of Diterpenoids from Clutia lanceolata” (2023).

The assay is filed under the species Mus musculus. The experiment in a line: Induction of glucose-triggered insulin secretion in BALB/c mouse islets of langerhans measured per islets incubated for 60 mins by ELISA analysis (reference value: 11.8 +/- 0.8 ng/hr). In kind it is functional. Particulars: 1 h.

Molecules are shown by their SMILES.

For `CC(=O)O[C@@H]1[C@@H]2C(=C(C)C(=O)O[C@H]2c2ccoc2)[C@]2(C)[C@@H]3CC[C@@](C)(C(=O)O3)[C@@H]12`, the Activity stood at 8 ng/h.
In the case of `C[C@@H]1C(=O)O[C@@]23CC[C@@]4(C)C(=O)OC[C@]45O[C@@](c4ccoc4)(C[C@H]1[C@]25C)O3` it was 25.5 ng/h; in that of `C[C@H]1C(=O)O[C@@]23COC(=O)[C@]2(C)CCC(=O)[C@@]3(C)[C@@H]1CC(=O)c1ccoc1`, 18.4 ng/h.
With `COC(=O)[C@]1(C)CCCC2=C1[C@@H](OC(C)=O)[C@H]1[C@H](c3ccoc3)OC(=O)[C@@H](C)[C@@]21O`, the Activity was 12.5 ng/h.
On to `COC(=O)[C@]1(C)CCC[C@@]2(C)C3=C(C)C(=O)O[C@@H](c4ccoc4)[C@@H]3[C@@H](OC(C)=O)[C@]12O`, for which the Activity is 9.3 ng/h.
Under `C[C@@H]1C(=O)O[C@@]23CC[C@@]4(C)C(=O)OC[C@]45O[C@@](C4=CC(=O)OC4O)(C[C@H]1[C@]25C)O3` (stereo not given in full) stands 20.8 ng/h; under `CC(=O)O[C@H]1[C@@H]2[C@@H]([C@@H](C)C(=O)O[C@H]2c2ccoc2)[C@@]23CCC[C@@](C)(C(=O)OC2O)[C@@]13O` (stereo not given in full), 16.6 ng/h; under `C[C@@H]1C(=O)O[C@@]23CC[C@@]4(C)C(=O)OC[C@]45O[C@@](C4=C[C@@H](O)OC4=O)(C[C@H]1[C@]25C)O3`, 18.3 ng/h.
Consider `COC(=O)[C@]1(C)CC[C@@H](O)[C@@H]2C3=C(C)C(=O)O[C@@H](c4ccoc4)[C@@H]3[C@@H](OC(C)=O)[C@H]21`, for which the Activity worked out at 14.6 ng/h.
In the case of `C[C@@H]1C(=O)O[C@@]23CC[C@@]4(C)C(=O)OC[C@]45O[C@@](C4=C[C@H](O)OC4=O)(C[C@H]1[C@]25C)O3` it was 25.5 ng/h.
In the case of `C[C@H]1C(=O)O[C@@]23COC(=O)[C@]2(C)CC[C@@]2(O)O[C@H](c4ccoc4)C[C@H]1[C@@]32C`, the Activity was found to be 30.7 ng/h.
`COC(=O)[C@]1(C)CCC[C@@]2(C)C3=C(C)C(=O)O[C@@H](C4=CC(=O)OC4O)[C@@H]3[C@@H](OC(C)=O)[C@]12O` (stereo not given in full) yielded an Activity of 16.4 ng/h.
With `CCCCNC(=O)NS(=O)(=O)c1ccc(C)cc1` [TOLBUTAMIDE], the Activity is 19.9 ng/h.
For the compound `CC(=O)O[C@@H]1[C@H]2[C@H](c3ccoc3)OC(=O)[C@H](C)[C@@]2(O)[C@@]23CCC[C@@](C)(C(=O)OC2)[C@@]13O`, the Activity is 8 ng/h.
In the case of `COC(=O)[C@]1(C)CCC[C@]2(C)[C@H]1[C@H](OC(C)=O)[C@H]1[C@H](c3ccoc3)OC(=O)[C@H](C)[C@]12O` it was 7.5 ng/h; in that of `COC(=O)[C@]1(C)CCC[C@@]2(C)[C@@]3(O)[C@@H]([C@@H](O)[C@@]21O)[C@H](c1ccoc1)OC(=O)[C@@H]3C`, 8.2 ng/h; in that of `COC(=O)[C@]1(C)CCC[C@@]2(C)[C@@]3(O)[C@@H]([C@@H](OC(C)=O)[C@@]21O)[C@H](c1ccoc1)OC(=O)[C@@H]3C`, 24.7 ng/h.
In turn, `C[C@@H]1C(=O)O[C@@]23COC(=O)[C@]2(C)CCC(=O)[C@@]3(C)[C@@H]1CC(=O)c1ccoc1` returned an Activity of 16.3 ng/h.
Compound `C[C@H]1C(=O)O[C@@H](c2ccoc2)C[C@H]1[C@@]1(C)CCC[C@@]2(C)C(=O)OC[C@H]12` returned an Activity of 10.6 ng/h.
For the compound `C[C@@H]1C(=O)O[C@@H](c2ccoc2)C[C@H]1[C@@]1(C)CCC[C@@]2(C)COC(=O)[C@@H]21`, the Activity turned out to be 16.9 ng/h.
